Source: publication PMC8703605, “Enhancement of the Topical Bioavailability and Skin Whitening Effect of Genistein by Using Microemulsions as Drug Delivery Carriers” (Pharmaceuticals, 2021)
Converted amounts (≈) assume the structure as drawn. Read-outs that look alike come from different tables or passages of the source.

How the values were obtained:
[1] = Solubility of genistein in different vehicles (shake flask, HPLC); type: physicochemical
Experimental: An excess amount of genistein was added to 1 mL each of the vehicles, including receptor buffer and oils, into a 1.5-mL Eppendorf, which was placed on a reciproacting shaker (Shaking Bath, Model B601D, Firstek Co., Ltd., Taipei, Taiwan) and shaken for more than 24 h at room temperature. Then each smaple was centrifuged at 12,000 rpm for 10 min. The drug concentration in supernatant was analyzed by HPLC.
Hitachi HPLC system (Hitachi, Tokyo, Japan), including model L-7100 pump, L-5210 autosampler, model L-4000H detector, and Merck Lichrocart® 100 RP 18 column (250 mm × 4 mm, 5 μm), was used. The mobile phase was composed of methanol and 0.05% phosphoric acid aqueous solution at ratios of 80/20 v/v. The flow rate and detection wavelength were at 1.0 mL/min and 230 nm, respectively. Diazepam solution was used as internal standard. The analytical method was successfully validated for linearity (1.0~100.0 μg/mL), with a determination coefficient (R^2) of 0.9997, precision of coefficient of variation (CV, %) of 4.16%, and accuracy of relative error (RE, %) of 5.71%. The limit of quantitation was 0.5 µg/mL.

[2] = set-up: method as in PMID 20190449; details: at 25 °C; cited from earlier work
[3] = system: Salmonella typhimurium; set-up: method as in PMID 16198038, PMID 9748575, PMID 2548712; details: cited from earlier work
[4] = system: mice; set-up: method as in PMID 16198038, PMID 9748575, PMID 2548712; details: cited from earlier work
[5] = system: rats; set-up: method as in PMID 16198038, PMID 9748575, PMID 2548712; details: cited from earlier work
[6] = In vivo pharmacokinetic determination; details: 20 mg/kg; for Cmax / Tmax / half-life / AUC: male, Sprague-Dawley, rat, in vivo; for AUC: AUC0→ꝏ
Experimental: Rats were divided into two groups, i.e., tranderaml (test) group and oral (control) group, each of three. Rats were anesthetized by 10% chloral hydrate (dosing 0.3 mL/100 g) for intraperitoneal injection. After being anesthetized, hairs on the abdominal skin were removed by an electric shaver. Then, a glass ring with a diameter of 3 cm was fixed on the skin by a quick-drying glue. The applied dose of 20 mg/kg of the tested microemulsion formulation was placed inside the glass ring. […] Blood samples of approximately 0.6 mL were collected from the jugular vein and placed into a 1.5-mL Eppendorf at predetermined time intervals after transdermal administration. Then, the blood sample was centrifuged at 12,000 rpm for 10 min. The plasma samples were stored at −20 °C until analysis. Three to six replicates were conducted for each formulation.
Sample preparation [49, 53, 54]: A 100 μL of plasma samples was incubated with 100 μL of the sulfatase (approximately 200 unit) at 37 ± 0.5 °C for 5 h. Then, 100 µL Nicotine 4 µg/mL was used as internal standard added to the sample, then vortexed for 10 s. A total of 1 mL tert-methyl butyl ether was added for extract solution and vortexed for 10 min and then centrifuged at 10,000 rpm for 10 min. The supernatant of 800 µL was transferred to Eppendorf and evaporated to dryness in the vacuum oven (EYELA CVE-3000, Tokyo, Japan) for 1 h and 40 °C. The residue was reconstituted with 100 µL methanol and analyzed.
The pharmacokinetic analysis includes the following quantities: area under the curve (AUC), maximum plasma concentration (Cmax), the time needed to reach the maximum plasma concentration (Tmax), and the half-life (t1/2) of the drug. All values are presented as the mean ± standard deviation (SD). All data were processed using Phoenix WinNonlin 6.3 (Pharsight Corporation, Sunnyvale, CA, USA) to construct pharmacokinetic profiles. Data were analyzed by using the ANOVA test to evaluate the differences between the groups, and values of p < 0.05 indicated significant differences compared with control.

With `O=c1c(-c2ccc(O)cc2)coc2cc(O)cc(O)c12` [genistein, 4′,5,7-trihydroxyisoflavone] as the compound, how does the “Increase of solubility in co-surfactant vs distilled water” value ([1]; co-surfactant) read?
The value was greater than 8415 fold.

What about the solubility ([1]; in Distilled water, room temperature, read-out: Solubility) of the same compound?
The solubility was roughly 0.01 mg/mL (≈ 0.037 mM).

What about the solubility ([1]; microemulsion with PEG 400 concentration 0, read-out: Solubility in microemulsion) of the same compound?
Its solubility is 11.1 mg/mL (≈ 41 mM).

What about the solubility ([1]; microemulsion with PEG 400 concentration 20%, read-out: Solubility in microemulsion) of the same compound?
Its solubility is 32 mg/mL (≈ 118 mM).

And the “Increase of solubility in oil vs distilled water” value ([1]; oil)?
Its value is “more than 13 fold”.

And the solubility ([1]; oil or lipid, thermodynamic from solid, in Capryol 90, room temperature, read-out: Solubility)?
Its solubility is 5.2 ± 0.23 mg/mL (≈ 19.2 mM).

And the solubility ([1]; oil or lipid, thermodynamic from solid, in Oleic acid, room temperature, read-out: Solubility)?
Its solubility is 0.13 ± 0.02 mg/mL (≈ 0.481 mM).

What about the solubility ([1]; oil or lipid, thermodynamic from solid, in Peceol, room temperature, read-out: Solubility) of the same compound?
The solubility was 0.36 ± 0.01 mg/mL (≈ 1.33 mM).

What about the solubility ([1]; organic solvent or mixture, thermodynamic from solid, in PEG 400, room temperature, read-out: Solubility) of the same compound?
The solubility was 84.2 ± 5.61 mg/mL (≈ 311 mM).

And the solubility ([1]; organic solvent or mixture, thermodynamic from solid, in Transcutol HP, room temperature, read-out: Solubility)?
The solubility was 94.7 ± 3.92 mg/mL (≈ 350 mM).

What about the “Increase of solubility in surfactant vs distilled water” value ([1]; surfactant) of the same compound?
The value was greater than 1903 fold.

And the solubility ([1]; thermodynamic from solid, in Brij 30, room temperature, read-out: Solubility)?
Its solubility is 27.7 ± 1.8 mg/mL (≈ 103 mM).

What about the solubility ([1]; thermodynamic from solid, in Cremophor EL, room temperature, read-out: Solubility) of the same compound?
Its solubility is 19.4 ± 6.15 mg/mL (≈ 71.9 mM).

What about the solubility ([1]; thermodynamic from solid, in Labrasol, room temperature, read-out: Solubility) of the same compound?
Its solubility is 55.5 ± 3.56 mg/mL (≈ 205 mM).

And the solubility ([1]; thermodynamic from solid, in Tween 80, room temperature, read-out: Solubility)?
The solubility was 19 ± 1.37 mg/mL (≈ 70.4 mM).

What about the solubility ([1]; water, thermodynamic from solid, in Distilled water, room temperature, read-out: Solubility) of the same compound?
Its solubility is 0.01 mg/mL (≈ 0.037 mM).

What about the solubility in water [2] of the same compound?
The solubility in water was 5.3 µM (≈ 1.43 µg/mL).

What about the Mutagenicity [3] of the same compound?
Its Mutagenicity is “not mutagenic”.

And the Mutagenicity and teratogenicity [4]?
The Mutagenicity and teratogenicity was “not mutagenic or teratogenic”.

What about the Mutagenicity and teratogenicity [5] of the same compound?
The Mutagenicity and teratogenicity was “not mutagenic or teratogenic”.

What about the Cmax ([6]; po) of the same compound?
The Cmax was 3120 ± 1800 ng/mL.

What about the Tmax ([6]; po) of the same compound?
Its Tmax is 3.67 ± 0.43 h.

What about the half-life ([6]; po) of the same compound?
The half-life was 391 ± 74.4 min.

What about the AUC ([6]; po, rats, aqueous suspension, n = 3) of the same compound?
The AUC was 33.9 ± 4.76 µg·h/mL.

And the Cmax ([6]; topical or ocular)?
The Cmax was 9120 ± 570 ng/mL.

What about the Tmax ([6]; topical or ocular) of the same compound?
Its Tmax is 7.26 ± 1.11 h.

And the half-life ([6]; topical or ocular)?
The half-life was 1160 ± 303 min.

What about the AUC ([6]; topical or ocular, rats, transdermal, microemulsion, n = 3) of the same compound?
Its AUC is 329 ± 50 µg·h/mL.

And the AUC0→ꝏ ([6]; rats, oral, aqueous suspension, n = 3)?
Its AUC0→ꝏ is 33.91 ± 4.76 µg·h/mL.
